Reference: patent US20020137929A1, “1 - (3-heterocyclylphenyl) isothiourea, -isourea, -guanidine and -amidine herbicidal agents” (Intellectual Property Department, BASF Aktiengesellschaft, priority 1998, published 2002)

Legend:
GALAP (Galium) = assay: Preemergence herbicidal evaluation; format: in vivo, Galium aparine; conditions: rated 4-5 weeks after treatment
How it was run: (§1)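 Seeds were mixed with potting soil and planted on about one inch of soil, then sprayed with test compound in aqueous acetone at about 0.0156 to 0.500 kg per hectare. Plants grew under standard greenhouse care and were visually rated 0-9 against untreated controls 4-5 weeks post-treatment.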

CASOB (Sicklepod) = assay: Preemergence herbicidal evaluation; format: in vivo, Cassia obtusifolia; conditions: rated 4-5 weeks after treatment
How it was run: as §1

AMBEL (Ragweed, Common) [1] = assay: Postemergence herbicidal evaluation; format: in vivo, Ambrosia artemisifolia; conditions: postemergence
How it was run: (§2)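 First, seedlings were raised for around two weeks. Next, test material in 50/50 acetone/water containing 0.5% TWEEN 20 was sprayed through a nozzle at 40 psi, equivalent to about 0.0156–0.500 kg/ha. Finally, after 4–5 weeks in the greenhouse, plants were rated 0–9.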

[2] = test system: CHEAL (Lambsquarters, Common); assay: Preemergence herbicidal evaluation; format: in vivo, Chenopodium album; conditions: rated 4-5 weeks after treatment
How it was run: as §1

[3] = test system: CHEAL (Lambsquarters, Common); assay: Postemergence herbicidal evaluation; format: in vivo, Chenopodium album; conditions: postemergence
How it was run: as §2

ECHCG (Barnyardgrass) = assay: Postemergence herbicidal evaluation; format: in vivo, Echinochloa crus-galli; conditions: postemergence
How it was run: as §2

AMBEL (Ragweed, Common) [4] = assay: Preemergence herbicidal evaluation; format: in vivo, Ambrosia artemisifolia; conditions: rated 4-5 weeks after treatment
How it was run: as §1

ZEAMX (Corn, Field) = assay: Postemergence herbicidal evaluation; format: in vivo, Zea mays; conditions: postemergence
How it was run: as §2

[5] = test system: GLXMAW (Soybean, Williams); assay: Postemergence herbicidal evaluation; format: in vivo, Glycine max, (L.) Merr. cv Williams; conditions: postemergence
How it was run: as §2

ABUTH (Velvetleaf) = assay: Postemergence herbicidal evaluation; format: in vivo, Abutilon theophrasti; conditions: postemergence
How it was run: as §2

CYPSE (Flatsedge) = assay: Preemergence weed control under flooded paddy conditions; format: in vivo, Cyperus serotinus; conditions: rated 3-4 weeks after treatment
How it was run: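 Flooded-pot preemergence screen with silt loam and seeds in the upper 0.5 cm. Dose about 0.0313 to 0.500 kg/ha, delivered into flood water; visual 0-9 score after 3 to 4 weeks.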

ORYSAT (Rice, Tebonnet) = assay: Postemergence herbicidal evaluation; format: in vivo, Oryza sativa, (L.) Tebonnet; conditions: postemergence
How it was run: as §2

CCOC(=O)CN1C(=O)C(SC)SC1=Nc1cc(-n2c(=O)cc(C(F)(F)F)n(C)c2=O)c(F)cc1Cl (stereo not shown) [Compound 125, Ethyl 2-{{2-chloro-5-[3,6-dihydro-3-methyl-2,6-dioxo-4-(trifluoromethyl)-1(2H)-pyrimidinyl]-4-fluorophenyl}imino}-5-(methylthio)-4-oxo-3-thiazolidineacetate]
Preemergence herbicidal rating GALAP (GALAP (Galium); rate 0.0156 kg/ha): 0.0 | Preemergence herbicidal rating GALAP (GALAP (Galium); rate 0.0313 kg/ha): 0.0 | Preemergence herbicidal rating GALAP (GALAP (Galium); rate 0.0625 kg/ha): 0.0 | Preemergence herbicidal rating GALAP (GALAP (Galium); rate 0.1250 kg/ha): 1.0 | Preemergence herbicidal rating GALAP (GALAP (Galium); rate 0.2500 kg/ha): 7.0 | Preemergence herbicidal rating GALAP (GALAP (Galium); rate 0.5000 kg/ha): 9.0 | Preemergence herbicidal rating CASOB (CASOB (Sicklepod); rate 0.0156 kg/ha): 0.0 | Preemergence herbicidal rating CASOB (CASOB (Sicklepod); rate 0.0313 kg/ha): 1.0 | Preemergence herbicidal rating CASOB (CASOB (Sicklepod); rate 0.0625 kg/ha): 3.0 | Preemergence herbicidal rating CASOB (CASOB (Sicklepod); rate 0.1250 kg/ha): 2.0 | Preemergence herbicidal rating CASOB (CASOB (Sicklepod); rate 0.2500 kg/ha): 9.0 | Preemergence herbicidal rating CASOB (CASOB (Sicklepod); rate 0.5000 kg/ha): 9.0 | herbicidal rating AMBEL (AMBEL (Ragweed, Common) [1]; rate 0.0156 kg/ha): 3.0 | herbicidal rating AMBEL (AMBEL (Ragweed, Common) [1]; rate 0.0313 kg/ha): 8.0 | herbicidal rating AMBEL (AMBEL (Ragweed, Common) [1]; rate 0.0625 kg/ha): 8.0 | Preemergence herbicidal rating CHEAL ([2]; rate 0.0156 kg/ha): 9.0 | Preemergence herbicidal rating CHEAL ([2]; rate 0.0313 kg/ha): 9.0 | Preemergence herbicidal rating CHEAL ([2]; rate 0.0625 kg/ha): 9.0 | Preemergence herbicidal rating CHEAL ([2]; rate 0.1250 kg/ha): 9.0 | Preemergence herbicidal rating CHEAL ([2]; rate 0.2500 kg/ha): 9.0 | Preemergence herbicidal rating CHEAL ([2]; rate 0.5000 kg/ha): 9.0 | herbicidal rating CHEAL ([3]; rate 0.0156 kg/ha): 3.0 | herbicidal rating CHEAL ([3]; rate 0.0313 kg/ha): 9.0 | herbicidal rating CHEAL ([3]; rate 0.0625 kg/ha): 9.0 | herbicidal rating ECHCG (ECHCG (Barnyardgrass); rate 0.0156 kg/ha): 1.0 | herbicidal rating ECHCG (ECHCG (Barnyardgrass); rate 0.0313 kg/ha): 2.0 | herbicidal rating ECHCG (ECHCG (Barnyardgrass); rate 0.0625 kg/ha): 3.0 | Preemergence herbicidal rating AMBEL (AMBEL (Ragweed, Common) [4]; rate 0.0156 kg/ha): 0.0 | Preemergence herbicidal rating AMBEL (AMBEL (Ragweed, Common) [4]; rate 0.0313 kg/ha): 6.0 | Preemergence herbicidal rating AMBEL (AMBEL (Ragweed, Common) [4]; rate 0.0625 kg/ha): 9.0 | Preemergence herbicidal rating AMBEL (AMBEL (Ragweed, Common) [4]; rate 0.1250 kg/ha): 9.0 | Preemergence herbicidal rating AMBEL (AMBEL (Ragweed, Common) [4]; rate 0.2500 kg/ha): 9.0 | Preemergence herbicidal rating AMBEL (AMBEL (Ragweed, Common) [4]; rate 0.5000 kg/ha): 9.0 | herbicidal rating ZEAMX (ZEAMX (Corn, Field); rate 0.0156 kg/ha): 6.7 | herbicidal rating ZEAMX (ZEAMX (Corn, Field); rate 0.0313 kg/ha): 7.3 | herbicidal rating ZEAMX (ZEAMX (Corn, Field); rate 0.0625 kg/ha): 8.0 | herbicidal rating GLXMAW ([5]; rate 0.0156 kg/ha): 7.3 | herbicidal rating GLXMAW ([5]; rate 0.0313 kg/ha): 8.0 | herbicidal rating GLXMAW ([5]; rate 0.0625 kg/ha): 8.7 | herbicidal rating ABUTH (ABUTH (Velvetleaf); rate 0.0156 kg/ha): 9.0 | herbicidal rating ABUTH (ABUTH (Velvetleaf); rate 0.0313 kg/ha): 9.0 | herbicidal rating ABUTH (ABUTH (Velvetleaf); rate 0.0625 kg/ha): 9.0 | herbicidal effect rating, CYPSE (CYPSE (Flatsedge); 0.0313 kg/ha): 2.0 | herbicidal effect rating, CYPSE (CYPSE (Flatsedge); 0.0625 kg/ha): 4.0 | herbicidal effect rating, CYPSE (CYPSE (Flatsedge); 0.1250 kg/ha): 9.0 | herbicidal effect rating, CYPSE (CYPSE (Flatsedge); 0.2500 kg/ha): 9.0 | herbicidal rating ORYSAT (ORYSAT (Rice, Tebonnet); rate 0.0156 kg/ha): 3.3 | herbicidal rating ORYSAT (ORYSAT (Rice, Tebonnet); rate 0.0313 kg/ha): 4.0 | herbicidal rating ORYSAT (ORYSAT (Rice, Tebonnet); rate 0.0625 kg/ha): 3.7
